According to EP0532716B1, “NEW […] WITH IMUNOMODULATING ACTIVITY AND PREPARATION THEREOF” (INSTITUTO […] T[…] NAVARRA, S.A., priority 1990, dated 1992):
Ends that are not written are not given here.

Experiments:
Type in all cases: cell-based
lymphomononuclear cells = experiment: Phenotypes of lymphomononuclear cells after peptide activation (fluorescein labeled antibodies, automated flow cytometry); details: 20 micrograms of peptide, 4 days, three healthy donors, Mean ± Standard error
Procedure: (§1) Peripheral blood mononuclear cells from healthy donors were obtained by leukapheresis, processing 5 to 10 liters of whole blood, using a Fenwall CS-3000 continuous-flow cell separator (Fenwall Laboratories, Deerfield, Illinois, USA). Vascular access was obtained with a double lumen central venous catheter.
(§2) Separated lymphomononuclear cells are washed, counted and resuspended at a concentration of 2x10^6 per ml in RPMI-1640 medium containing 10 units of penicillin per ml, 200 µg of gentamycin per ml, 2mM of glutamine per ml and 2,5% of autologous serum in a PL-732 culture bag (Fenwall Laboratories, Deerfield, Illinois, USA).
(§3) The incubation medium contained 20 micrograms of the peptide being studied. • Peptide 1 (Peptide of Example 1). • Peptide 2 (Peptide of Example 2). • Peptide 3 (Peptide of Example 3). • Peptide 4 (Peptide of Example 4). Control Peptide (Ala-Asp-Ala-Gln-Gln-Asn-Lys-Phe-Asn-Lys-Asp-Gln-Gln-Ser-Val. In this pentadecapeptide Proline is absent. This control peptide has in common with the peptides object the invention only aa11=Asp).
(§4) The cells are cultured for 4 days in a moist-air incubator at 37^ºC, 5% CO2 and 21% O2, One ml sample is drawn daily for microbiological studies.
(§5) Changes in the cytotoxic ability of lymphomononuclear cells before and after peptide activation are measured with the ^51Cr release assay, using K562 and Daudi target cells (Table I). Phenotypic changes of lymphomononuclear cells before and after peptide activation are also assessed with fluorescein labeled […] antibodies and automated flow cytometry (Table II). It is well known that lymphomononuclear cells are very heterogeneous, but the presence of surface markers (CD) allows the description of their phenotypes (Weissman IL, Fathman CG, J Exp Med (1973) 137:504; Small M, Herzenberg CA, Weissman IL, Cell Immunol (1975) 15:109).

K562 target cells = experiment: 51Cr release assay: cytotoxic activity of peptide-activated lymphomononuclear cells against K562 target cells; details: lymphomononuclear cells from three healthy donors, cultured 4 days with 20 micrograms of peptide; Mean ± Standard error
Text: (§6) Generation of cells with cytotoxic activity towards NK sensitive and NK resistant target cells.
as §1, §2
as §3, with “[…].” for “Control Peptide (Ala-Asp-Ala-Gln-Gln-Asn-Lys-Phe-Asn-Lys-Asp-Gln-Gln-Ser-Val.”
as §4, §5

Daudi target cells = experiment: 51Cr release assay: cytotoxic activity of peptide-activated lymphomononuclear cells against Daudi target cells; details: lymphomononuclear cells from three healthy donors, cultured 4 days with 20 micrograms of peptide; Mean ± Standard error
Text: as §6, §1, §2
as §3, with “[…].” for “Control Peptide (Ala-Asp-Ala-Gln-Gln-Asn-Lys-Phe-Asn-Lys-Asp-Gln-Gln-Ser-Val.”
as §4, §5

Compound | CELLS EXPRESSING SURFACE MARKERS (%) CD3 (lymphomononuclear cells) [%] | CELLS EXPRESSING SURFACE MARKERS (%) CD8 (lymphomononuclear cells) [%] | CELLS EXPRESSING SURFACE MARKERS (%) CD11b (lymphomononuclear cells) [%] | CELLS EXPRESSING SURFACE MARKERS (%) CD14 (lymphomononuclear cells) [%] | CELLS EXPRESSING SURFACE MARKERS (%) CD16 (lymphomononuclear cells) [%] | CELLS EXPRESSING SURFACE MARKERS (%) CD56 (lymphomononuclear cells) [%] | CYTOTOXIC ACTIVITY (%) K562 (K562 target cells) [%] | CYTOTOXIC ACTIVITY (%) DAUDI (Daudi target cells) [%]
NVLGAPKKLNESQAV [Peptide 1] | 60 ± 1 | 17 ± 1 | 23 ± 5 | 17 ± 4 | 22 ± 7 | 18 ± 6 | 63 ± 8 | 68 ± 6
EILNMPNLNEEQRNV [Peptide 3] | 59 ± 3 | 17 ± 2 | 23 ± 4 | 18 ± 3 | 21 ± 5 | 18 ± 5 | 59 ± 9 | 58 ± 9
CC(C)[C@H](NC(=O)[C@H](CO)NC(=O)[C@H](CCC(N)=O)NC(=O)[C@H](CCC(N)=O)NC(=O)[C@H](CC(=O)O)NC(=O)[C@H](CCCCN)NC(=O)[C@H](CC(N)=O)NC(=O)[C@H](Cc1ccccc1)NC(=O)[C@H](CCCCN)NC(=O)[C@H](CC(N)=O)NC(=O)[C@H](CCC(N)=O)NC(=O)[C@H](CCC(N)=O)NC(=O)[C@H](C)NC(=O)[C@H](CC(=O)O)NC(=O)[C@H](C)N)C(=O)O [Control Peptide, Ala-Asp-Ala-Gln-Gln-Asn-Lys-Phe-Asn-Lys-Asp-Gln-Gln-Ser-Val, reference compound] | – | – | – | – | – | – | 12 ± 8 | 10 ± 4
CC[C@H](C)[C@H](NC(=O)[C@H](CCC(=O)O)NC(=O)[C@H](CCCCN)NC(=O)[C@H](CO)NC(=O)[C@@H](NC(=O)[C@H](CO)NC(=O)[C@@H]1CCCN1C(=O)[C@H](CC(=O)O)NC(=O)[C@H](CC(=O)O)NC(=O)[C@H](CCCCN)NC(=O)[C@H](CC(C)C)NC(=O)[C@H](CO)NC(=O)[C@H](CCC(N)=O)NC(=O)[C@@H](NC(=O)[C@H](Cc1ccccc1)NC(=O)CNC(=O)[C@@H](N)CC(N)=O)[C@@H](C)CC)C(C)C)C(=O)N[C@@H](CC(C)C)C(=O)N[C@@H](C)C(=O)N[C@@H](CCC(=O)O)C(=O)N[C@@H](C)C(=O)N[C@@H](CCCCN)C(=O)N[C@H](C(=O)O)C(C)C [Peptide 4] | – | – | – | – | – | – | 58 ± 7 | 56 ± 6
CC[C@H](C)[C@H](NC(=O)[C@H](CCC(=O)O)NC(=O)[C@H](CCCCN)NC(=O)[C@H](CO)NC(=O)[C@@H](NC(=O)[C@H](CO)NC(=O)[C@@H]1CCCN1C(=O)[C@H](CC(=O)O)NC(=O)[C@H](CC(=O)O)NC(=O)[C@H](CCCCN)NC(=O)[C@H](CC(C)C)NC(=O)[C@@H](N)CO)C(C)C)C(=O)N[C@@H](CC(C)C)C(=O)N[C@@H](C)C(=O)N[C@H](C(=O)O)C(C)C [Peptide 2] | 58 ± 2 | 18 ± 2 | 24 ± 3 | 18 ± 3 | 22 ± 6 | 17 ± 5 | 62 ± 7 | 62 ± 8
